Test results as given in the Kinase Knowledgebase extract (Sharma et al. 2016).
pIC50: −log10 of the molar value. “And” between values parts separate entries of the source, which are not always exact repeats. Equal values may be shown once.

Columns and labels:
EGFR [1] = molecular target: EGFR (UniProt P00533)
EGFR (Hamster) = EGFR (Hamster) (UniProt P00533); settings: for pIC50: er22
EGFR [2] = molecular target: EGFR (UniProt P00533); remark: listed apart in the source

EGFR (Hamster), sequence (P00533 whole entry, looked up): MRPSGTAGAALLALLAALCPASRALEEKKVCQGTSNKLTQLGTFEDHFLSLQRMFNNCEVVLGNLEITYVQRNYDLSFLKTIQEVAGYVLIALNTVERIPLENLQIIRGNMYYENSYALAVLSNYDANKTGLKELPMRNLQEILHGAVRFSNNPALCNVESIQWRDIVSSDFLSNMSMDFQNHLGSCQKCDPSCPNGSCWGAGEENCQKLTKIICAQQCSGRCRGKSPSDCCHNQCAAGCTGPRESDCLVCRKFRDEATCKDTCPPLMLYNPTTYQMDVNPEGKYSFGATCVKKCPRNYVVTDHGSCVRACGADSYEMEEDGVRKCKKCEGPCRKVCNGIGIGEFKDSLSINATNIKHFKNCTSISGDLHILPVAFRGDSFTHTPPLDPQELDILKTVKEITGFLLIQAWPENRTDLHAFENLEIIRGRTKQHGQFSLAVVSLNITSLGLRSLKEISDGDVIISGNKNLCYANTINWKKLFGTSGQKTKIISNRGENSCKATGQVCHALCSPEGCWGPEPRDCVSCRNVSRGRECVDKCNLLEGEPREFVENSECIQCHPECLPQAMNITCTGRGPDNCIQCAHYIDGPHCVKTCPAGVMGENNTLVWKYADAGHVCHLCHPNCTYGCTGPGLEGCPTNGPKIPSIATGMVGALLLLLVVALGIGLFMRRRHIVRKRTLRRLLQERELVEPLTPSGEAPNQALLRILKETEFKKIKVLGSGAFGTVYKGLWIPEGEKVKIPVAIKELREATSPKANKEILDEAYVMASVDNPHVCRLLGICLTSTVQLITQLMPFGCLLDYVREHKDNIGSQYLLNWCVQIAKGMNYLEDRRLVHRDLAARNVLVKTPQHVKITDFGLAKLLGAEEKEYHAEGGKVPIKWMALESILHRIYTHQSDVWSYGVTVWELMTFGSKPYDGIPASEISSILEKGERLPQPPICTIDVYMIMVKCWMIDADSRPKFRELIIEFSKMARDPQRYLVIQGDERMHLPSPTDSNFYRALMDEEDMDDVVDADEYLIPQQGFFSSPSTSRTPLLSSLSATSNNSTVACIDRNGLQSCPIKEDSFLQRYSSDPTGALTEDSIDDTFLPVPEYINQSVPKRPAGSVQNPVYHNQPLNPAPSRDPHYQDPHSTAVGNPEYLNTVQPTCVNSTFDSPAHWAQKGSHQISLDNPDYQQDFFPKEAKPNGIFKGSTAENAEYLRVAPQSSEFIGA
EGFR, sequence (P00533 whole entry, looked up): as above

| SMILES | pIC50 (EGFR [1]) | pIC50 (EGFR (Hamster)) | pIC50 (EGFR [2]) | inhibition (EGFR [1]; concentration not given here) | inhibition (EGFR (Hamster); er22, dose or concentration not given here) |
| --- | --- | --- | --- | --- | --- |
| CC(CSCc1cc(NCc2cc(O)ccc2O)ccc1O)CC(C)(C)C (stereo not given) | 5.72 | 5.30 | – | – | – |
| CC(COCc1cccc(NCc2cc(O)ccc2O)c1)CC(C)(C)C (stereo not given) | < 5.00 | 5.60 | – | – | – |
| Oc1ccc(O)c(CNc2ccc(O)c(COc3ccccc3)c2)c1 | 6.15 | < 5.00 | – | – | – |
| CN(Cc1ccccc1)C(=O)c1cc(NCc2cc(O)ccc2O)ccc1O | 6.26 | < 5.00 | – | – | – |
| CC(COCc1cc(NCc2cc(O)ccc2O)ccc1O)CC(C)(C)C (stereo not given) | 5.00 | 5.70 | – | – | – |
| Oc1ccc(O)c(CNc2ccc(O)c(COCc3ccccc3)c2)c1 | 6.10 | < 5.00 | – | – | – |
| CC(COC(=O)c1cc(NCc2cc(O)ccc2O)ccc1O)CC(C)(C)C (stereo not given) | – | – | ≤ 5.00 | – | – |
| COC(=O)[C@H](Cc1ccccc1)NC(=O)c1cc(NCc2cc(O)ccc2O)ccc1O | 6.27 | 5.00 | – | – | – |
| Oc1ccc(O)c(CNc2cccc(COCc3ccccc3)c2)c1 | 6.02 | 5.60 | – | – | – |
| O=C(CCc1ccccc1)c1c(O)cccc1NCc1cc(O)ccc1O | 5.30 | 5.40 | – | – | – |
| CC(CC(=O)c1cc(NCc2cc(O)ccc2O)ccc1O)CC(C)(C)C (stereo not given) | 6.43 | 5.70 | – | – | – |
| CC(O)c1cccc(NCc2cc(O)ccc2O)c1 (stereo not given) | 5.80 | < 4.70 | – | – | – |
| Oc1ccc(O)c(CNc2cccc(C(O)c3ccccc3)c2)c1 (stereo not given) | 5.74 | 4.70 | – | – | – |
| Oc1ccc(O)c(CNc2ccc(O)c(C(O)c3ccccc3)c2)c1 (stereo not given) | 5.89 | 5.09 | – | – | – |
| CCCCCCCCCCCCCCCCC(=O)Oc1ccc(NCc2cc(O)ccc2O)cc1C(=O)NCc1ccccc1 | 5.82 | – | – | – | 20% |
| CC(=O)c1cccc(NCc2cc(O)ccc2O)c1 | 5.89 | 4.92 | – | – | – |
| O=C(Cc1ccccc1)c1cccc(NCc2cc(O)ccc2O)c1O | 5.70 | 5.32 | – | – | – |
| CC(CC(=O)c1cccc(NCc2cc(O)ccc2O)c1O)CC(C)(C)C (stereo not given) | – | – | – | 24% | – |
| COc1ccc(NCc2cc(O)ccc2O)cc1COCC(C)CC(C)(C)C (stereo not given) | 4.70 | 6.10 | – | – | – |
| CC(CNC(=O)c1cc(NCc2cc(O)ccc2O)ccc1O)CC(C)(C)C (stereo not given) | 6.10 | 5.22 | – | – | – |
| OCc1cc(NCc2cc(O)ccc2O)ccc1O | 5.70 | 4.92 | – | – | – |
| O=C(OCCCc1ccccc1)c1cc(NCc2cc(O)ccc2O)ccc1O | – | 5.65 | – | – | – |
| O=C(NCc1ccccc1)c1cc(NCc2cc(O)ccc2O)ccc1O | 7.70 and 7.42 | 5.22 and 5.15 | 7.40 | – | – |
| O=C(c1ccccc1)c1cccc(NCc2cc(O)ccc2O)c1 | 6.10 | 5.30 | – | – | – |

More lines, in order of rising pIC50 (EGFR [1]), values ahead:

| pIC50 (EGFR [1]) | pIC50 (EGFR (Hamster)) | pIC50 (EGFR [2]) | inhibition (EGFR [1]; concentration not given here) | SMILES | inhibition (EGFR (Hamster); er22, dose or concentration not given here) |
| --- | --- | --- | --- | --- | --- |
| 6.47 | < 5.00 | – | – | CC(=O)c1cc(NCc2cc(O)ccc2O)ccc1O | – |
| 6.52 | 5.00 | – | – | O=C(c1ccccc1)c1cc(NCc2cc(O)ccc2O)ccc1O | – |
| 6.66 | 5.05 | 6.52 | – | CC(C)(C)CC(C)(C)NC(=O)c1cc(NCc2cc(O)ccc2O)ccc1O | – |
| 6.72 | < 5.00 | – | – | N#Cc1cc(NCc2cc(O)ccc2O)ccc1O | – |
| 6.80 | 5.19 | – | – | O=C(CCc1ccccc1)c1cc(NCc2cc(O)ccc2O)ccc1O | – |
| 6.82 | < 5.30 | – | – | Oc1ccc(O)c(CNc2ccc(O)c(C(=S)NCc3ccccc3)c2)c1 | – |
| 6.82 | < 5.00 | – | – | CC(C)c1ccc(NC(=O)c2cc(NCc3cc(O)ccc3O)ccc2O)cc1 | – |
| 6.92 | < 5.00 | – | – | CC(C)c1ccccc1NC(=O)c1cc(NCc2cc(O)ccc2O)ccc1O | – |
| 7.15 | 5.00 | – | – | CC(NC(=O)c1cc(NCc2cc(O)ccc2O)ccc1O)c1ccccc1 (stereo not given) | – |
| 7.22 | 5.00 | – | – | O=C(Cc1ccccc1)c1cc(NCc2cc(O)ccc2O)ccc1O | – |
| 7.70 | 5.00 | 7.05 | – | O=C(Nc1ccccc1)c1cc(NCc2cc(O)ccc2O)ccc1O | – |
